# In patent US9969770B2, “Proline compounds as Granzyme B inhibitors” (viDA Therapeutics Inc., priority 2014, dated 2018):
# Target: GzmB (Homo sapiens, UniProt P10144)
# Test: Inhibition of fibronectin cleavage by GzmB
# Assay type: biochemical
# Conditions: 20 nM granzyme B, 30° C.; for inhibition at 0.62 µM: 0.62 uM inhibitor, read-out: Percent Inhibition at Inhibitor Concentration 0.62 uM; for inhibition at 5.56 µM: 5.56 uM inhibitor, read-out: Percent Inhibition at Inhibitor Concentration 5.56 uM; for inhibition at 50 µM: 50 uM inhibitor, read-out: Percent Inhibition at Inhibitor Concentration 50 uM
# Experimental: Black, 96 well high-binding assay plates (Griener Bio-one) were treated overnight at 4° C. with 40 uL of 8 ug/mL Hilyte Fluor 488 labeled Fibronectin (Cytoskeleton, Inc). After fibronectin coating, plates were washed 3 times in buffer (20 mM Tris-HCl, pH 7.4, 20 mM NaCl) then once with granzyme B assay buffer (50 mM HEPES, pH 7.5, 0.1% CHAPS). After washing, 50 uL of granzyme B assay buffer was added to each fibronectin-coated well. In a separate non-binding 96 well assay plate 5 uL of 20× inhibitor serial dilution stocks were added to 45 uL of 2.22×GzmB mix to establish inhibition (enzyme/inhibitor mixes were all prepared in granzyme B assay buffer and were incubated first at room temperature for 20 minutes, then at 30° C. for another 10 minutes). After incubation, 50 uL of this 2× enzyme/inhibitor mix was added to the corresponding coated well to initiate fibronectin cleavage (20 nM final granzyme B concentration, 8-point inhibitor dilution series starting at 50 uM). The assay was conducted at 30° C. in the TECAN plate reader (TECAN INFINITE® M1000 Pro), which was programmed to monitor the kinetic fluorescence polarization signal (filter set Ex/Em 470 nm/527 nm) with readings taken every minute, for 1 hour. Proteolytic activity was evaluated as the rate of fluorescence enhancement in the parallel emission over the linear range of the reaction. % Inhibition values were calculated from assay controls and the resulting date is shown in Table 6.
# GzmB, sequence (P10144 21-247): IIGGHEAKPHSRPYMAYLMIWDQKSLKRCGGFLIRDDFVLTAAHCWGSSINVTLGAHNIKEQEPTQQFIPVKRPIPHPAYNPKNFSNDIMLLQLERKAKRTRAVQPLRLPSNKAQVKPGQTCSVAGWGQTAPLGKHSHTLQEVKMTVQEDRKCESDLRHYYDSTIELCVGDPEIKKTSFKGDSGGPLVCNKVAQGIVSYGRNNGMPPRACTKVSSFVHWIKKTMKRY
structure (smiles),measurement,value
"CC[C@H](C)[C@H](NC(=O)CCC(=O)O)C(=O)NCC(=O)N1C[C@H](Sc2ccccc2)C[C@H]1C(=O)NCc1nn[nH]n1 [Compound C13, 4-(((2S,3S)-1-((2-((2S,4R)-2-(((2H-tetrazol-5-yl)methyl)carbamoyl)-4-(phenylthio)pyrrolidin-1-yl)-2-oxoethyl)amino)-3-methyl-1-oxopentan-2-yl)amino)-4-oxobutanoic acid]",inhibition at 0.62 µM,28%
same,inhibition at 5.56 µM,58%
same,inhibition at 50 µM,81%
"CC[C@H](C)[C@H](NC(=O)Cc1ccccc1)C(=O)NCC(=O)N1C[C@H](C2CCCCC2)C[C@H]1C(=O)NCc1nn[nH]n1 [Compound C2, (2S,4S)—N-((2H-tetrazol-5-yl)methyl)-4-cyclohexyl-1-(2-((2S,3S)-3-methyl-2-(2-phenylacetamido)pentanamido)acetyl)pyrrolidine-2-carboxamide]",inhibition at 0.62 µM,40%
same,inhibition at 5.56 µM,76%
same,inhibition at 50 µM,84%
"O=C(O)CCC(=O)N[C@H](C(=O)NCC(=O)N1C[C@H](C2CCCCC2)C[C@H]1C(=O)NCc1nn[nH]n1)C1CCCC1 [Compound C5, 4-(((S)-2-((2-((2S,4S)-2-(((2H-tetrazol-5-yl)methyl)carbamoyl)-4-cyclohexylpyrrolidin-1-yl)-2-oxoethyl)amino)-1-cyclopentyl-2-oxoethyl)amino)-4-oxobutanoic acid]",inhibition at 0.62 µM,35%
same,inhibition at 5.56 µM,70%
same,inhibition at 50 µM,86%
